Assay results taken from patent US7947854B2, “Bis-cationic compounds and use thereof” (The University of Sydney, priority 2003, dated 2011).
“And” between values parts separate entries of the source, which are not always exact repeats. Identical values can stand only once.

Experiments:
Format in all cases: cell-based
dermatophyte isolates = experiment: Susceptibility of dermatophytes, results stated over all isolates; settings: read-out: mean MICs across all the isolates
Experimental: Isolates were tested using the method described in the National Committee for Clinical Laboratory Standards (NCCLS) document M38-P for filamentous fungi, with dermatophyte specific modifications described by Fernández-Torres et al, Current topics in Medical Mycology, 14-19 Feb. 1999.
Five dermatophyte isolates were, namely; T. rubrum, T. mentagrophytes, T. tonsurans, M. canis and M. gypseum, all of which produce lipases and some, phospholipase. These isolates were tested by the broth microdilution method according to NCCLS document M38-P, for activity against selected antifungal agents. In addition, ten randomly selected isolates of T. tonsurans were also tested. All isolates were maintained on SDA at 28° C. Candida parapsilosis (ATCC 20019) was used as the reference control is organism. […]
Fungal cultures were subcultured onto Potato Dextrose Agar and grown at 28° C. for 7-10 days. […] Inoculum quantification was performed by plating 100 μl of the 1:1000 dilution of the adjusted inoculum on SDA plates, incubated at 28° C., and after 7 days of incubation, the colonies were counted.
Testing was based on NCCLS M38-P document for testing filamentous moulds. […] Plates were incubated at 28° C. for 7 days, and read at 3 days and 7 days of incubation. […]
Growth in microtitre trays were read by visual inspection by using an illuminated-reversed mirror. […]

[1] = tested on: Aspergillus flavus ATCC 204 304; experiment: In vitro antifungal activity, filamentous fungi, NCCLS M38-A; settings: Aspergillus flavus, ATCC204
From the text: (§1) The assay used for filamentous fungi (Aspergillus; Scedosporium; Fusarium) was that published by the National Committee for Clinical Laboratory Standards. 2002. Reference Method for Broth Dilution Antifungal Susceptibility Testing of Filamentous Fungi: Approved Standard. NCCLS document M38-A.Villanova, Pa., USA.

[2] = tested on: Scedosporium prolificans 1-003-040; experiment: as above; settings: Lomentospora prolificans, 1003040
From the text: as §1

[3] = tested on: Scedosporium apiospermum 1-003-056; experiment: as above; settings: Scedosporium apiospermum, 1003056
From the text: as §1

[4] = tested on: Aspergillus terreus ATCC 03-232-378; experiment: as above; settings: Aspergillus terreus, ATCC03
From the text: as §1

[5] = tested on: Fusarium solani 04-132-4207; experiment: as above; settings: Fusarium solani, 041324207
From the text: as §1

[6] = tested on: Aspergillus fumigatus ATCC 204 305; experiment: as above; settings: Aspergillus fumigatus, ATCC204
From the text: as §1

Structure (SMILES) | MIC (dermatophyte isolates) | MIC [1] | MIC [2] | MIC [3] | MIC [4] | MIC [5] | MIC [6]
CCCC[N+](CCCC)(CCCC)CCCCCCCCCCCC[N+](CCCC)(CCCC)CCCC [Compound 3, 1,12-bis(tributylammonium)do-decane dibromide] | 2.62 to 7.61 µg/mL | – | – | – | – | – | –
CCCC[N+](CCCC)(CCCC)CCCCCCCCCCCC[N+](CCCC)(CCCC)CCCC [1,12-Bis-(tributylammonium)dodecane dichloride] | – | 13.4 µg/mL and 22 µM | 3.3 µg/mL and 5.5 µM | 1.7 µg/mL and 2.8 µM | 3.3 µg/mL and 5.5 µM | 3.3 µg/mL and 5.5 µM | 6.7 µg/mL and 11 µM
